Source: the supplement of paper PMC10307832

Key:
Experiment in all cases: relative viability (nuclei count vs DMSO), 5 days (fraction); higher = more cells survive
NCI-H1793 = tested on: NCI-H1793
How it was run: (§1)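 Nuclei were stained with Hoechst during a one-step fixation (final 0.05% Triton X-100, 1% formaldehyde, 1 ug/ml Hoechst) carried out 5 days after dosing, then counted on 4× images. The cells, lung cancer lines in 1536-well plates, had been dosed by pin tool the day after seeding with one drug alone or a fixed anchor-drug dose plus five library-drug doses (not always all listed) in √10 steps. Relative viability is the nuclei count in treated wells divided by that in vehicle wells, and each value is the median of duplicate plates.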

NCI-H1437 = tested on: NCI-H1437
How it was run: as §1

HCC-366 = tested on: HCC-366
How it was run: as §1

NCI-H1650 = tested on: NCI-H1650
How it was run: as §1

NCI-H460 = tested on: NCI-H460
How it was run: as §1

NCI-H2023 = tested on: NCI-H2023
How it was run: as §1

LU99A = tested on: LU99A
How it was run: as §1

NCI-H441 = tested on: NCI-H441
How it was run: as §1

NCI-H1355 = tested on: NCI-H1355
How it was run: as §1

LOU-NH91 = tested on: LOU-NH91
How it was run: as §1

NCI-H838 = tested on: NCI-H838
How it was run: as §1

COR-L23 = tested on: COR-L23
How it was run: as §1

NCI-H1651 = tested on: NCI-H1651
How it was run: as §1

NCI-H1734 = tested on: NCI-H1734
How it was run: as §1

NCI-H1975 = tested on: NCI-H1975
How it was run: as §1

NCI-H358 = tested on: NCI-H358
How it was run: as §1

BEN = tested on: BEN
How it was run: as §1

CAL-12T = tested on: CAL-12T
How it was run: as §1

NCI-H2342 = tested on: NCI-H2342
How it was run: as §1

NCI-H2085 = tested on: NCI-H2085
How it was run: as §1

SK-LU-1 = tested on: SK-LU-1
How it was run: as §1

In the case of `COc1nc(C)cnc1NS(=O)(=O)c1cccnc1-c1ccc(-c2nnco2)cc1` [Zibotentan] + O=C(c1cc(Cc2n[nH]c(=O)c3ccccc23)ccc1F)N1CCN(C(=O)C2CC2)CC1 [Olaparib] (partner 8 µM), the relative viability (NCI-H1793; first compound 0.08 µM) is reported as 0.998, the relative viability (NCI-H1793; first compound 0.253 µM) is reported as 0.835 and the relative viability (NCI-H1793; first compound 0.8 µM) is reported as 0.796. For the same compound, the relative viability (NCI-H1793; first compound 2.53 µM) was 0.957, the relative viability (NCI-H1437; first compound 0.08 µM) was 0.64 and the relative viability (NCI-H1437; first compound 0.253 µM) was 0.629. It also gave a relative viability (NCI-H1437; first compound 0.8 µM) of 0.617, a relative viability (NCI-H1437; first compound 2.53 µM) of 0.621 and a relative viability (HCC-366; first compound 0.08 µM) of 0.396. It also gave a relative viability (HCC-366; first compound 0.253 µM) of 0.34, a relative viability (HCC-366; first compound 0.8 µM) of 0.342 and a relative viability (HCC-366; first compound 2.53 µM) of 0.365. For the same compound, the relative viability (NCI-H1650; first compound 0.08 µM) was 0.803, the relative viability (NCI-H1650; first compound 0.8 µM) was 0.757 and the relative viability (NCI-H1650; first compound 2.53 µM) was 0.682. The relative viability (NCI-H460; first compound 0.08 µM) was 0.42, the relative viability (NCI-H460; first compound 0.253 µM) was 0.346 and the relative viability (NCI-H460; first compound 0.8 µM) was 0.322. For the same compound, the relative viability (NCI-H460; first compound 2.53 µM) was 0.481, the relative viability (NCI-H2023; first compound 0.08 µM) was 0.438 and the relative viability (NCI-H2023; first compound 0.253 µM) was 0.415. The relative viability (NCI-H2023; first compound 0.8 µM) was 0.516, the relative viability (NCI-H2023; first compound 2.53 µM) was 0.469 and the relative viability (LU99A; first compound 0.08 µM) was 0.269. It also gave a relative viability (LU99A; first compound 0.253 µM) of 0.259, a relative viability (LU99A; first compound 0.8 µM) of 0.181 and a relative viability (LU99A; first compound 2.53 µM) of 0.255. The relative viability (NCI-H441; first compound 0.08 µM) was 0.549, the relative viability (NCI-H441; first compound 0.253 µM) was 0.517 and the relative viability (NCI-H441; first compound 0.8 µM) was 0.638. It also gave a relative viability (NCI-H441; first compound 2.53 µM) of 0.576, a relative viability (NCI-H1355; first compound 0.08 µM) of 0.829 and a relative viability (NCI-H1355; first compound 0.253 µM) of 0.691. For the same compound, the relative viability (NCI-H1355; first compound 0.8 µM) was 0.751, the relative viability (NCI-H1355; first compound 2.53 µM) was 0.756 and the relative viability (LOU-NH91; first compound 0.08 µM) was 0.908. It also gave a relative viability (LOU-NH91; first compound 0.253 µM) of 0.854, a relative viability (LOU-NH91; first compound 0.8 µM) of 0.999 and a relative viability (LOU-NH91; first compound 2.53 µM) of 0.947. For the same compound, the relative viability (NCI-H838; first compound 0.08 µM) was 0.756, the relative viability (NCI-H838; first compound 0.253 µM) was 0.747 and the relative viability (NCI-H838; first compound 0.8 µM) was 0.827. It also gave a relative viability (NCI-H838; first compound 2.53 µM) of 0.849, a relative viability (COR-L23; first compound 0.08 µM) of 0.324 and a relative viability (COR-L23; first compound 0.253 µM) of 0.284. For the same compound, the relative viability (COR-L23; first compound 0.8 µM) was 0.395, the relative viability (COR-L23; first compound 2.53 µM) was 0.352 and the relative viability (NCI-H1651; first compound 0.08 µM) was 0.172. It also gave a relative viability (NCI-H1651; first compound 0.253 µM) of 0.191, a relative viability (NCI-H1651; first compound 0.8 µM) of 0.19 and a relative viability (NCI-H1651; first compound 2.53 µM) of 0.184. The relative viability (NCI-H1734; first compound 0.08 µM) was 0.593, the relative viability (NCI-H1734; first compound 0.253 µM) was 0.588 and the relative viability (NCI-H1734; first compound 0.8 µM) was 0.653. It also gave a relative viability (NCI-H1734; first compound 2.53 µM) of 0.699, a relative viability (NCI-H1975; first compound 0.08 µM) of 0.855 and a relative viability (NCI-H1975; first compound 0.253 µM) of 0.742. It also gave a relative viability (NCI-H1975; first compound 0.8 µM) of 0.749, a relative viability (NCI-H1975; first compound 2.53 µM) of 0.765 and a relative viability (NCI-H358; first compound 0.08 µM) of 0.735. The relative viability (NCI-H358; first compound 0.253 µM) was 0.323, the relative viability (NCI-H358; first compound 2.53 µM) was 0.689 and the relative viability (BEN; first compound 0.08 µM) was 1.15. The relative viability (BEN; first compound 0.253 µM) was 1.09, the relative viability (BEN; first compound 0.8 µM) was 1.09 and the relative viability (BEN; first compound 2.53 µM) was 0.958. The relative viability (CAL-12T; first compound 0.08 µM) was 0.742, the relative viability (CAL-12T; first compound 0.253 µM) was 0.67 and the relative viability (CAL-12T; first compound 0.8 µM) was 0.768. The relative viability (CAL-12T; first compound 2.53 µM) was 0.664, the relative viability (NCI-H2342; first compound 0.08 µM) was 0.407 and the relative viability (NCI-H2342; first compound 0.253 µM) was 0.44. The relative viability (NCI-H2342; first compound 0.8 µM) was 0.504, the relative viability (NCI-H2342; first compound 2.53 µM) was 0.389 and the relative viability (NCI-H2085; first compound 0.08 µM) was 0.742. The relative viability (NCI-H2085; first compound 0.253 µM) was 0.734, the relative viability (NCI-H2085; first compound 0.8 µM) was 0.856 and the relative viability (NCI-H2085; first compound 2.53 µM) was 0.801. The relative viability (SK-LU-1; first compound 0.08 µM) was 0.507, the relative viability (SK-LU-1; first compound 0.253 µM) was 0.477 and the relative viability (SK-LU-1; first compound 0.8 µM) was 0.579. The relative viability (SK-LU-1; first compound 2.53 µM) was 0.615.
